Assay results: patent publication US20260078130A1, “NAMPT MODULATORS, PREPARATIONS, AND USES THEREOF” (SIRONAX LTD., priority 2022, published 2026)

Key:
[1] = target: T1, human enzyme NAMPT (full length) (Homo sapiens, UniProt P43490); assay: NMN fluorescence biochemical assay (stimulation of NMN synthesis by NAMPT); conditions: for EC50: NMN fluorescence assay, purified human NAMPT 100 nM, concentration giving half-maximal activation, read-out: Enzymatic EC50; for Enzymatic Emax: fold change of maximal activation compared to DMSO
T1 construct: human enzyme NAMPT (full length)
T1 sequence (P43490 whole entry): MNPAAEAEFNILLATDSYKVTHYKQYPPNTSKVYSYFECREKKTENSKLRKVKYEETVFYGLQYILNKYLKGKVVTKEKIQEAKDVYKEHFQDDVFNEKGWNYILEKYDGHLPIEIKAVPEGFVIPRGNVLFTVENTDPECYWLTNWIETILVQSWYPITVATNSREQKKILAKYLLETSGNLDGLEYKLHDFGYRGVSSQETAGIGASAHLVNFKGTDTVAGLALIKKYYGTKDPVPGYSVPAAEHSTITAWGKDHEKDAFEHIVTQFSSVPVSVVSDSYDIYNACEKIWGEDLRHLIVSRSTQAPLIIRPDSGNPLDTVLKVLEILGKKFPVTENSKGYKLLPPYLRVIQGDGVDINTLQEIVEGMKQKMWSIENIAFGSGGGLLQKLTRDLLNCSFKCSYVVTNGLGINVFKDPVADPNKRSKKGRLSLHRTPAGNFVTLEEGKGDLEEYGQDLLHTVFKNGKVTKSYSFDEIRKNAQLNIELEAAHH
In short: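 Full-length human NAMPT (100 nM) was preincubated 15 min at 37 °C with compound in 50 mM Tris-HCl pH 7.5, 10 mM MgCl2, 2 mM DTT, then reacted 1 h at 37 °C with 50 μM NAM, 100 μM PRPP, 4 mM ATP (stated solution concentrations). NMN was derivatised with acetophenone/KOH then formic acid and read at Ex/Em 382/445 nm; EC50 and Emax (fold over DMSO) reported.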

[2] = system: endogenous NAMPT in U2OS cells; assay: Cellular NAD+ modulation assay (NAD/NADH-Glo, U2OS cells); assay type: cell-based; conditions: Homo sapiens, 24 hours incubation, cellular NAD+; for maximal fold induction: read-out: Cellular Emax
In short: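 NAD/NADH-Glo luminescence quantified NAD+ after acid treatment (60 °C, 15 min) and neutralization of DTAB lysates. Beforehand, U2OS cells seeded 16 h earlier received compound concentration series for 24 h at 37 °C. Values given as half-maximal activation concentration (EC50) and maximal fold change versus DMSO (Emax).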

| SMILES | EC50 [1] [nM] | Enzymatic Emax [1] | EC50 [2] [nM] | maximal fold induction [2] |
| --- | --- | --- | --- | --- |
| Cn1nc(OC(F)F)c(Cl)c1CC1c2ccccc2C(=O)N1Cc1ccc2[nH]nnc2c1 (stereo not drawn) [Compound 397, 2-((1H-benzo[d][1,2,3]triazol-5-yl)methyl)-3-((4-chloro-3-(difluoromethoxy)-1-methyl-1H-pyrazol-5-yl)methyl)isoindolin-1-one] | < 500 | B (3≥B>2) | < 500 | > 1.5 |
| Cn1ncc(Cl)c1CC1c2cc(C3CCOCC3)ccc2C(=O)N1Cc1ccc2[nH]nnc2c1 (stereo not drawn) [Compound 398, 2-((1H-benzo[d][1,2,3]triazol-5-yl)methyl)-3-((4-chloro-1-methyl-1H-pyrazol-5-yl)methyl)-5-(tetrahydro-2H-pyran-4-yl)isoindolin-1-one] | < 500 | A (A>3) | 500 to 5000 | > 1.5 |
| Cn1nc(C2CC2)c(Cl)c1CC1c2ccccc2C(=O)N1Cc1ccc2[nH]nnc2c1 (stereo not drawn) [Compound 399, 2-((1H-benzo[d][1,2,3]triazol-5-yl)methyl)-3-((4-chloro-3-cyclopropyl-1-methyl-1H-pyrazol-5-yl)methyl)isoindolin-1-one] | < 500 | B (3≥B>2) | < 500 | > 1.5 |
| O=C1c2ccccc2C(Cc2ncccc2Br)N1CC1CCc2[nH]c(=O)oc2C1 (stereo not drawn) [Compound 400, 6-((1-((3-bromopyridin-2-yl)methyl)-3-oxoisoindolin-2-yl)methyl)-4,5,6,7-tetrahydrobenzo[d]oxazol-2(3H)-one] | 500 to 5000 | B (3≥B>2) | 500 to 5000 | > 1.5 |
| NC(=O)C1CC(CN2C(=O)c3ccccc3C2Cc2ncccc2Br)C1 (stereo not drawn) [Compound 404, 3-((1-((3-bromopyridin-2-yl)methyl)-3-oxoisoindolin-2-yl)methyl)cyclobutane-1-carboxamide] | < 500 | B (3≥B>2) | < 500 | > 1.5 |
| Cn1ncc(Cl)c1C[C@@H]1c2ccccc2C(=O)N1C[C@H]1C[C@]2(CNC(=O)O2)C1 [Compound 405, (2s,4S)-2-(((R)-1-((4-chloro-1-methyl-1H-pyrazol-5-yl)methyl)-3-oxoisoindolin-2-yl)methyl)-5-oxa-7-azaspiro[3.4]octan-6-one] | 500 to 5000 | C (2≥C) | 5000 to 50000 | 1.2 to 1.5 |
| Cn1ncc(Cl)c1C[C@H]1c2ccccc2C(=O)N1C[C@H]1C[C@]2(CNC(=O)O2)C1 [Compound 406, (2s,4R)-2-(((S)-1-((4-chloro-1-methyl-1H-pyrazol-5-yl)methyl)-3-oxoisoindolin-2-yl)methyl)-5-oxa-7-azaspiro[3.4]octan-6-one] | < 500 | B (3≥B>2) | < 500 | > 1.5 |
| Cc1ccnc(C#N)c1CC1c2ccccc2C(=O)N1C/C=C/c1c[nH]nn1 (stereo not drawn) [Compound 409, (E)-3-((2-(3-(1H-1,2,3-triazol-4-yl)allyl)-3-oxoisoindolin-1-yl)methyl)-4-methylpicolinonitrile] | < 500 | B (3≥B>2) | < 500 | > 1.5 |
| N#CCn1cc(Cl)c(CC2c3ccccc3C(=O)N2Cc2ccc3[nH]nnc3c2)n1 (stereo not drawn) [Compound 410, 2-(3-((2-((1H-benzo[d][1,2,3]triazol-5-yl)methyl)-3-oxoisoindolin-1-yl)methyl)-4-chloro-1H-pyrazol-1-yl)acetonitrile] | < 500 | B (3≥B>2) | 500 to 5000 | > 1.5 |
| CC(C)(O)Cn1cc(Cl)c(CC2c3ccccc3C(=O)N2Cc2ccc3[nH]nnc3c2)n1 (stereo not drawn) [Compound 411, 2-((1H-benzo[d][1,2,3]triazol-5-yl)methyl)-3-((4-chloro-1-(2-hydroxy-2-methylpropyl)-1H-pyrazol-3-yl)methyl)isoindolin-1-one] | < 500 | B (3≥B>2) | < 500 | > 1.5 |
| O=C1c2ccccc2C(Cc2nn(C3CC4(COC4)C3)cc2Cl)N1Cc1ccc2[nH]nnc2c1 (stereo not drawn) [Compound 412, 2-((1H-benzo[d][1,2,3]triazol-5-yl)methyl)-3-((4-chloro-1-(2-oxaspiro[3.3]heptan-6-yl)-1H-pyrazol-3-yl)methyl)isoindolin-1-one] | < 500 | B (3≥B>2) | 5000 to 50000 | 1.2 to 1.5 |
| O=C1c2ccccc2C(Cc2nn(C3CNC3)cc2Cl)N1Cc1ccc2[nH]nnc2c1 (stereo not drawn) [Compound 413, 2-((1H-benzo[d][1,2,3]triazol-5-yl)methyl)-3-((1-(azetidin-3-yl)-4-chloro-1H-pyrazol-3-yl)methyl)isoindolin-1-one] | < 500 | B (3≥B>2) | 500 to 5000 | > 1.5 |
| COc1ccc2c(c1)C(=O)N(Cc1ccc3[nH]nnc3c1)C2Cc1c(Cl)cnn1C (stereo not drawn) [Compound 414, 2-((1H-benzo[d][1,2,3]triazol-5-yl)methyl)-3-((4-chloro-1-methyl-1H-pyrazol-5-yl)methyl)-6-methoxyisoindolin-1-one] | 500 to 5000 | A (A>3) | < 500 | > 1.5 |
| COc1ccc(CN2C(=O)c3ccccc3C2Cc2ncccc2Br)cc1 (stereo not drawn) [Compound 415, 3-((3-bromopyridin-2-yl)methyl)-2-(4-methoxybenzyl)isoindolin-1-one] | 500 to 5000 | B (3≥B>2) | < 500 | 1.2 to 1.5 |
| C/C(=C\c1c[nH]nn1)CN1C(=O)c2ccccc2C1Cc1ncccc1Br (stereo not drawn) [Compound 416, (E)-3-((3-bromopyridin-2-yl)methyl)-2-(2-methyl-3-(1H-1,2,3-triazol-4-yl)allyl)isoindolin-1-one] | < 500 | B (3≥B>2) | < 500 | > 1.5 |
| O=C1c2ccccc2C(Cc2ncccc2Br)N1CC#Cc1cn[nH]n1 (stereo not drawn) [Compound 417, 2-(3-(2H-1,2,3-triazol-4-yl)prop-2-yn-1-yl)-3-((3-bromopyridin-2-yl)methyl) isoindolin-1-one] | < 500 | B (3≥B>2) | < 500 | > 1.5 |
| O=C1c2ccccc2C(Cc2ncsc2Cl)N1Cc1ccc2[nH]nnc2c1 (stereo not drawn) [Compound 418, 2-((1H-benzo[d][1,2,3]triazol-5-yl)methyl)-3-((5-chlorothiazol-4-yl)methyl)isoindolin-1-one] | < 500 | B (3≥B>2) | < 500 | > 1.5 |
| Cn1ncc(Cl)c1CC1(C)c2cc(Br)ccc2C(=O)N1Cc1ccc2[nH]c(=O)oc2c1 (stereo not drawn) [Compound 419, 6-((6-bromo-1-((4-chloro-1-methyl-1H-pyrazol-5-yl)methyl)-1-methyl-3-oxoisoindolin-2-yl)methyl)benzo[d]oxazol-2(3H)-one] | < 500 | A (A>3) | < 500 | > 1.5 |
| CN(C)c1nn(C)c(CC2c3ccccc3C(=O)N2Cc2ccc3[nH]nnc3c2)c1Cl (stereo not drawn) [Compound 420, 2-((1H-benzo[d][1,2,3]triazol-5-yl)methyl)-3-((4-chloro-3-(dimethylamino)-1-methyl-1H-pyrazol-5-yl)methyl)isoindolin-1-one] | < 500 | B (3≥B>2) | < 500 | > 1.5 |
| Cn1ncc(Cl)c1CC1c2cc(OC(F)F)ccc2C(=O)N1Cc1ccc2[nH]nnc2c1 (stereo not drawn) [Compound 421, 2-((1H-benzo[d][1,2,3]triazol-5-yl)methyl)-3-((4-chloro-1-methyl-1H-pyrazol-5-yl)methyl)-5-(difluoromethoxy)isoindolin-1-one] | < 500 | B (3≥B>2) | < 500 | > 1.5 |
| CNCc1ccc2c(c1)C(=O)N(Cc1ccc3[nH]nnc3c1)C2Cc1c(Cl)cnn1C (stereo not drawn) [Compound 422, 2-((1H-benzo[d][1,2,3]triazol-5-yl)methyl)-3-((4-chloro-1-methyl-1H-pyrazol-5-yl)methyl)-6-((methylamino)methyl)isoindolin-1-one] | ≥ 5000 | B (3≥B>2) | 5000 to 50000 | 1.2 to 1.5 |
| O=C1c2ccccc2C(Cc2ncccc2Br)N1C/C=C/c1cn[nH]c1 (stereo not drawn) [Compound 423, (E)-2-(3-(1H-pyrazol-4-yl)allyl)-3-((3-bromopyridin-2-yl)methyl)isoindolin-1-one] | < 500 | B (3≥B>2) | < 500 | > 1.5 |
| C/C(=C\CN1C(=O)c2ccccc2C1Cc1ncccc1Br)c1c[nH]nn1 (stereo not drawn) [Compound 425, (E)-2-(3-(1H-1,2,3-triazol-4-yl)but-2-en-1-yl)-3-((3-bromopyridin-2-yl)methyl) isoindolin-1-one] | < 500 | B (3≥B>2) | < 500 | > 1.5 |
| Cc1ccnc(C#N)c1CC1c2cccc(F)c2C(=O)N1CC1CC2(CNC(=O)O2)C1 (stereo not drawn) [Compound 428, 3-((4-fluoro-3-oxo-2-((6-oxo-5-oxa-7-azaspiro[3.4]octan-2-yl)methyl)isoindolin-1-yl)methyl)-4-methylpicolinonitrile] | 500 to 5000 | B (3≥B>2) | < 500 | > 1.5 |
